# Reference: patent US7041276B2, “Methods of screening agents for activity using teleosts” (priority 1998, dated 2006)
# “Also recorded” adds a separate entry of the source.
# What was measured:
# rats = settings: i.p. (intraperitoneal); cited from earlier work
# [1] = test system: liver of zebrafish embryos; experiment: Liver staining with streptavidin-peroxidase (DAB visual, ABTS colorimetric); format: in vivo
# Source text: Toxic activity in the liver of the treated whole animal can be assessed visually by using a rapid colorimetric staining procedure. This procedure is based on the use of a streptavidin (avidin) conjugated reporter enzyme, such as peroxidase, to detect naturally biotinylated carboxylase enzymes in the liver, gut, and digestive tube of whole animals, such as zebrafish embryos. These biotinyl-lysine containing enzymes, such as acetyl-CoA carboxylase and other carboxylases, are predominantly located in the liver and digestive tube. As a result, staining is organ specific (FIG. 11). Quantitative biotinylated assessment of the liver can be made. By visual detection of biotinylation, size and location of the liver can be determined.
# Zebrafish embryos (4, 5 or 6 days old) were fixed with 4% paraformaldehyde for 1 hour at room temperature and treated with methanol 100% overnight at −20° C. The embryos were rehydrated and washed with PBST. […] The embryos were then washed twenty minutes three times with PBST and stained for peroxidase with two different dyes: Diaminobenzidine (DAB) (Pierce) (insoluble) to assess liver staining and 2,2′-Azino-bis(3-Ethylbenz-thiazoline-6-sulfonic acid)(ABTS)(Sigma)(soluble) to measure a quantitative visual signal using a colorimetric method. […] The ABTS signal was detected by measuring the absorbance of the solution at 405 nanometer […] using a spectrophotometer. […]
# zebrafish embryos = experiment: Five-day zebrafish toxicity testing; format: in vivo; settings: for Zebrafish specific toxicity observed: five-day exposure
# Experimental: Fertilized zebrafish embryos were obtained by natural spawning in our aquaculture facility. To reduce variations between batches, randomized samples of embryos from 3 or 4 independent matings were used. The test medium was prepared by combining 5 g of Instant Ocean Salt with 3 g of CaSO4 in 25 liters of distilled water, according to Westerfield, supra. The embryos were maintained in the test medium throughout the experiments. Embryos at 24 hours of development (with chorion) were exposed continuously for five days to chemical compounds at different concentrations of the chemical compounds and controls. In general, the concentrations ranged from 100 nanomolar (nM) to 100 micromolar (μM). Tests were repeated four times for each series of dilutions, and a standard deviation was calculated for each treatment (see “Statistical Methods” section). Ten embryos per concentration were exposed in a total volume of 1 ml (constant ratio of 100 μl/embryo) using a 24 multi-well plate. (Other sizes of multi-well plates, such as 96-well plates can also be used to facilitate screening.) The compounds were renewed daily. In all cases, 0.1% of dimethyl sulfoxide (DMSO) was used as a carrier solvent during the treatment. Controls with and without 0.1% DMSO were performed in all experiments. This approach has long been used to introduce anesthetics and other chemicals into fish embryos (Westerfield, supra).
# Experiments were carried out at a constant temperature (28–28.5° C.) in the dark to protect the compounds from decomposition due to light exposure. Dead embryos were removed daily, counted, and used to calculate the Median Lethal Concentration (LC50, see “Statistical Methods” section herein). Each day, surviving embryos were analyzed visually under a dissecting binocular microscope (Zeiss, amplification 30–50×). Macroscopic malformations (such as axial defects, embryolethality, growth inhibition, general malformations, including microcephaly, macrocephaly, tail truncation, tail malformation, loss of axial structures, such as somites, etc.) were observed, classified, and counted to assess whole animal toxicity. Compounds that were lethal or induced these or any noted malformations or disruptions during development (e.g., during the first 5 days of development) were further examined for toxic effects on organs. The embryonic developmental stage that is affected by the toxic compound can be determined. Organ toxicity can be assessed in surviving embryos using in situ hybridization, enzymatic assays, and immunochemistry procedures.
# Toxic activity in the kidney (Pronephros) can be assessed visually by colorimetric staining of the kidney of the treated whole animal (e.g., zebrafish). Zebrafish pronephros express high levels of the enzyme alkaline phosphatase that can be easily assayed using a chromogenic dye. To stain kidneys in zebrafish embryos, embryos were fixed with 2% paraformaldehyde overnight at 4° C. and then treated with methanol 100% for 30 minutes at room temperature. […]
# For the concentrations tested with aspirin and dexamethasone in these studies, there was no partial lethality and the geometric mean of the parameters “no mortality” (0%) and “mortality” (100%) of the effect concentration was taken as the LC50 and binomial confidence limits were calculated according to Stephan, “Methods for Calculating LD50” in Aquatic Toxicology and Hazard Evaluation (F. L. Mayce and J. L. Hamelink eds.) ASTM STP 634, pp. 65–84. […]
# mice and rats = settings: TOXNET Web Search and other sources; cited from earlier work
# mice = settings: i.p. (intraperitoneal); cited from earlier work
compound,measurement,setting,value
C[C@@H]1C[C@H]2[C@@H]3CCC4=CC(=O)C=C[C@]4(C)[C@@]3(F)[C@@H](O)C[C@]2(C)[C@@]1(O)C(=O)CO [Dexamethasone],Mammalian models LD50,rats,"54 (rats, i.p.) mg/kg"
same,liver size compared with control embryos,"[1]; 100 μM for five days, six day old embryo",dramatic reduction in liver size
same,"reduction of the colorimetric liver signal (ABTS, 405 nm) compared with untreated embryos","[1]; 100 μM, five days",about 70%
same,Zebrafish LD50,zebrafish embryos; embryos exposed continuously for five days from 24 hours of development,324 mg/L
same,Zebrafish specific toxicity observed,zebrafish embryos,"liver,; also recorded: gastro-"
same,Zebrafish specific toxicity observed,zebrafish embryos; listed as dexamethasone,Liver and gastrointestinal toxicity
same,Mammalian models specific toxicity (from the literature),mice and rats,"liver,; also recorded: gastro-"
same,Mammalian models LD50,mice,"410 (mice, i.p.) mg/kg"
